In ChEMBL document CHEMBL4706720, “Pyrrolidine Compounds as Potential Lipid-Lowering Therapeutic in Cardiovascular Disease” (ACS Med Chem Lett, 2021):

Assay: Inhibition of lipoprotein(a) assembly from Apo(a) and LDL particle in human HepG2 and HEK293 combined conditioned media incubated for 2 hrs by sandwich ELISA

| SMILES | IC50 [nM] |
| --- | --- |
| O=C(O)[C@@H](Cc1cccc(Oc2cccc(C[C@H](C(=O)O)[C@H]3CCNC3)c2)c1)[C@H]1CCNC1 | 0.372 |
| O=C(O)[C@@H](Cc1cccc(OCCOc2cccc(C[C@H](C(=O)O)[C@H]3CCNC3)c2)c1)[C@H]1CCNC1 | 0.288 |
| CC(Cc1cccc(CN(Cc2cccc(CC(C)(C(=O)O)[C@H]3CCNC3)c2)Cc2cccc(CC(C)(C(=O)O)[C@H]3CCNC3)c2)c1)(C(=O)O)[C@H]1CCNC1 (some centres not stated) | 0.108 |
| O=C(O)[C@@H](Cc1cccc(Sc2cccc(C[C@H](C(=O)O)[C@H]3CCNC3)c2)c1)[C@H]1CCNC1 | 0.36 |
| COc1cc(F)cc(CN(Cc2cccc(C[C@H](C(=O)O)[C@H]3CCNC3)c2)Cc2cccc(C[C@H](C(=O)O)[C@H]3CCNC3)c2)c1 | 0.17 |
| O=C(O)[C@@H](Cc1cccc(CNCc2cccc(C[C@H](C(=O)O)[C@H]3CCNC3)c2)c1)[C@H]1CCNC1 | 0.934 |
| O=C(O)[C@@H](Cc1cccc([S+]([O-])c2cccc(C[C@H](C(=O)O)[C@H]3CCNC3)c2)c1)[C@H]1CCNC1 | 0.396 |
| O=C(O)[C@@H](Cc1cccc(COc2cccc(C[C@H](C(=O)O)[C@H]3CCNC3)c2)c1)[C@H]1CCNC1 | 0.359 |
| O=C(O)[C@@H](Cc1cccc(NS(=O)(=O)Nc2cccc(C[C@H](C(=O)O)[C@H]3CCNC3)c2)c1)[C@H]1CCNC1 | 0.563 |
| O=C(O)[C@@H](Cc1cccc(S(=O)(=O)c2cccc(C[C@H](C(=O)O)[C@H]3CCNC3)c2)c1)[C@H]1CCNC1 | 0.235 |
| O=C(O)[C@@H](Cc1cccc(CN(Cc2cccc(C[C@H](C(=O)O)[C@H]3CCNC3)c2)Cc2cccc(C[C@H](C(=O)O)[C@H]3CCNC3)c2)c1)[C@H]1CCNC1 | 0.0963 |
| O=C(O)[C@@H](Cc1cccc(Nc2cccc(C[C@H](C(=O)O)[C@H]3CCNC3)c2)c1)[C@H]1CCNC1 | 0.348 |
